Data reported in patent US7855290B2, “Pyridine derivatives and pyrimidine derivatives (3)” (Eisai R&D Management Co., Ltd., priority 2005, dated 2010).
pIC50: −log10 of the molar value.

How the values were obtained:
[1] = test system: Human umbilical vein endothelial cells (HUVECs); assay: Inhibitory activity against the growth of vascular endothelial cells stimulated with hepatocyte growth factor; type: cell-based; settings: HUVEC, HGF stimulated, third day, Cell Counting Kit-8, read-out: IC50 (cell proliferation activity)
Procedure: Human umbilical vein endothelial cells (HUVECs) were isolated according to the reported method (Shin Seikagaku Jikken Koza, “Cell culturing techniques”, p 197-202), and then cultured in a 5% CO2 incubator (37° C.) using EGM-2 medium (purchased from Clonetics) until the cells reached confluency.
HUVECs were suspended in a serum-free medium for endothelial cell culture (SFM, purchased from GIBCO RBL) containing 2% FBS. The cell suspension (2×10^4 cells/ml) was put in a cell culturing 96-well plate (purchased from NUNC, Production No. 167008) at 0.1 ml/well, and then cultured in a 5% CO2 incubator (37° C.) overnight. After the culture, each well was supplied with 50 μl of the test substance diluted with a 2% FBS-containing serum-free medium for endothelial cell culture and 50 μl of HGF (purchased from R&D) diluted at a concentration of 120 ng/ml with a 2% FBS-containing serum-free medium for endothelial cell culture, followed by culturing in a 5% CO2 incubator (37° C.). On the third day after the addition of the test substance, each well was supplied with 10 μl of Cell Counting Kit-8 (purchased from DOJINDO, Production No. 343-07623), and then the plate was incubated in a 5% CO2 incubator (37° C.) for about 2 hours. After the incubation, using a Plate Reader MTP-500 (Corona Electric), the absorbance of each well was determined at a measurement wavelength of 450 nm and a reference wavelength of 660 nm. While defining the absorbance of a well supplied with HGF and no test substance as 100% cell proliferation activity and the absorbance of the well supplied with no test substance and no HGF as 0% cell proliferation activity, the cell proliferation activity ratio (%) was calculated for each cell.

[2] = test system: Human gastric cancer cells (MKN-45); assay: Inhibitory activity against the proliferation of human gastric cancer cells (MKN-45); type: cell-based; settings: 72 h, MKN-45, 1% FBS RPMI1640, 3 days, Cell Counting Kit-8
Procedure: Human gastric cancer cells (MKN-45) were suspended in a 1% FBS-containing RPMI1640 medium (purchased from Sigma). The cell suspension (1×10^4 cells/ml) was added in a 96-well plate for cell culture (purchased from NUNC, Production No. 167008) at 0.1 ml/well, and then cultured in a 5% CO2 incubator (37° C.) overnight. After the culture, each well was supplied with 0.1 ml of a test substance diluted with a 1% FBS-containing RPMI1640 medium, followed by culturing in a 5% CO2 incubator (37° C.) for 3 days. After the culture, each well was supplied with 10 μl of Cell Counting Kit-8 (purchased from DOJINDO, Production No. 343-07623), followed by incubation in a 5% CO2 incubator (37° C.) for about 1.5 hrs. After the incubation, using the Plate Reader MTP-500 (Corona Electric), the absorbance of each well was determined at a measurement wavelength of 450 nm and a reference wavelength of 660 nm.

- pIC50 [2]: 7.77
Compound: CN1CCN(C2CCN(C(=O)Nc3cc(Oc4ccc(NC(=O)C5(C(=O)Nc6ccc(F)cc6)CC5)c(F)c4)ccn3)CC2)CC1 [Example 15, N-(2-Fluoro-4-{[2-({[4-(4-methylpiperazin-1-yl)piperidin-1-yl]carbonyl}amino)pyridin-4-yl]oxy}phenyl)-N′-(4-fluorophenyl)cyclopropane-1,1-dicarboxamide]
- pIC50 [1]: 7.82
